How the values were obtained:
[1] = Polymorph stress test: water content by Karl Fisher titration after storage; assay type: physicochemical; settings: for Water content (Karl Fisher): dipotassium salt
Description: Samples of polymorph Form Ib and polymorph Form II also were analyzed for water content using Karl Fisher titration according to method AM-1-General/water content. A columetric Karl Fisher titrator (DL39, Mettler Toledo) was used with a Stromboli drying oven (Mettler Toledo), a generator electrode, and a standard analytical balance (at least […] accuracy). Instrument conditions were set for an oven temperature of 150° C., a gas flow rate of 100.0 mL/min, and a stirrer speed of 50%. Control parameters were set for a max time of 600 s, a current of 2.0 μA, an end point of 100 mV, and a generation speed set at normal. The samples were tested on the day of synthesis (zero point) and at 1, 2, and 4 weeks storage at ambient conditions (i.e., room temperature and room humidity), at 25° C. (+/−2° C.) and 60% relative humidity (RH) (+/−5% RH), and at 40° C. (+/−2° C.) and 75% RH (+/−5% RH). Test results are provided in Table 10 (Form Ib) and Table 11 (Form II), wherein the values provided are the percent water content.

[2] = Polymorph stress test: purity by HPLC-UV after storage; assay type: physicochemical; settings: for Purity by HPLC-UV, average: average over time points
Description: Samples of polymorph Form Ib and polymorph Form II were analyzed for purity by HPLC-UV according to method AM-5-ASP001 performed by gradient liquid chromatography with UV-detection at 237 nm. A Hypersil GOLD column from Thermo Scientific (250×4.6 mm, 5 μm) was used at a temperature of 30° C. A Dionex STH 585 column oven was used with a Dionex P580 gradient pump and a flow rate of 1.0 ml/min (gradient elution). A Dionex Degasys DG-1210 degasser and a Gynkotek Gina 50 autosampler injector were used with an injection volume of 5 μL. A Dionex PDA-100 photodiode array detector was used at a wavelength of 237 nm. Sample runtime was 46 minutes. The samples were tested on the day of synthesis (zero point) and at 1, 2, and 4 weeks storage at ambient conditions (i.e., room temperature and room humidity), at 25° C. (+/−2° C.) and 60% relative humidity (RH) (+/−5% RH), and at 40° C. (+/−2° C.) and 75 RH (+/−5% RH). Test results are provided in Table 8 (Form Ib) and Table 9 (Form II), wherein the values provided are the area %.

[3] = 25° C. (+/−2° C.) and 60% relative humidity (+/−5% RH)
[4] = 1 week storage, 25° C./60% RH, dipotassium salt
[5] = 1 week storage, 40° C./75% RH, dipotassium salt
[6] = 1 week storage, ambient conditions, dipotassium salt
[7] = 2 weeks storage, 25° C./60% RH, dipotassium salt
[8] = 2 weeks storage, 40° C./75% RH, dipotassium salt
[9] = 2 weeks storage, ambient conditions, dipotassium salt
[10] = 4 weeks storage, 25° C./60% RH, dipotassium salt
[11] = 4 weeks storage, 40° C./75% RH, dipotassium salt
[12] = 4 weeks storage, ambient conditions
[13] = 25° C./60% RH, dipotassium salt
[14] = 40° C./75% RH, dipotassium salt
[15] = ambient conditions, dipotassium salt
[16] = zero point (day of synthesis), dipotassium salt
[17] = 1 week storage, ambient conditions
[18] = 2 weeks storage, ambient conditions

Row | Compound | Water uptake on storage (in words) [1, 3] | Purity by HPLC-UV [2, 4] [area %] | Purity by HPLC-UV [2, 5] [area %] | Purity by HPLC-UV [2, 6] [area %] | Purity by HPLC-UV [2, 7] [area %] | Purity by HPLC-UV [2, 8] [area %] | Purity by HPLC-UV [2, 9] [area %] | Purity by HPLC-UV [2, 10] [area %] | Purity by HPLC-UV [2, 11] [area %] | Purity by HPLC-UV, average [2, 13] [area %] | Purity by HPLC-UV, average [2, 14] [area %] | Purity by HPLC-UV, average [2, 15] [area %] | Purity by HPLC-UV [2, 16] [area %] | Water content (Karl Fisher) ([1]; 1 week storage, 25° C./60% RH) [%] | Water content (Karl Fisher) ([1]; 1 week storage, 40° C./75% RH) [%] | Water content (Karl Fisher) [1, 17] [%] | Water content (Karl Fisher) ([1]; 2 weeks storage, 25° C./60% RH) [%] | Water content (Karl Fisher) ([1]; 2 weeks storage, 40° C./75% RH) [%] | Water content (Karl Fisher) [1, 18] [%] | Water content (Karl Fisher) ([1]; 4 weeks storage, 25° C./60% RH) [%] | further results
1 | C=C(C[C@H](NC(=O)c1ccc(CCc2ccc3nc(N)nc(N)c3c2)cc1)C(=O)[O-])C(=O)[O-].[K+].[K+] [Form I, (S)-2-{4-[2-(2,4-diamino-quinazolin-6-yl)-ethyl]-benzoylamino}-4-methylene-pentanedioic acid, dipotassium salt] | no significant water uptake | – | – | – | – | – | – | – | – | – | – | – | – | – | – | – | – | – | – | – | –
2 | C=C(C[C@H](NC(=O)c1ccc(CCc2ccc3nc(N)nc(N)c3c2)cc1)C(=O)[O-])C(=O)[O-].[K+].[K+] [Form Ib, (S)-2-{4-[2-(2,4-diamino-quinazolin-6-yl)-ethyl]-benzoylamino}-4-methylene-pentanedioic acid, dipotassium salt] | – | 95.96 | 95.87 | 95.87 | 95.67 | 95.43 | 95.78 | 95.85 | 95.34 | 95.83 | 95.55 | 95.88 | 95.94 | 16.0 | 19.6 | 16.2 | 15.5 | 22.7 | 16.5 | 16.4 | Purity by HPLC-UV [2, 12]: 95.91 area %; Water content (Karl Fisher) ([1]; 4 weeks storage, 40° C./75% RH): 26.8%; Water content (Karl Fisher) [1, 12]: 18.4%; Water content (Karl Fisher) ([1]; zero point (day of synthesis)): 14.8%
3 | C=C(C[C@H](NC(=O)c1ccc(CCc2ccc3nc(N)nc(N)c3c2)cc1)C(=O)[O-])C(=O)[O-].[K+].[K+] [Form II, (S)-2-{4-[2-(2,4-diamino-quinazolin-6-yl)-ethyl]-benzoylamino}-4-methylene-pentanedioic acid, dipotassium salt] | no significant water uptake | 96.53 | 96.43 | 96.42 | 96.24 | 96.35 | 96.49 | 96.24 | 95.52 | 96.44 | 96.10 | 96.49 | 96.46 | 17.0 | 21.2 | 18.7 | 16.3 | 24.4 | 21.1 | 16.5 | Water content (Karl Fisher) ([1]; 4 weeks storage, 40° C./75% RH): 26.6%; Water content (Karl Fisher) [1, 12]: 21.9%; Storage stability (in words) [1, 3]: stable; Water content (Karl Fisher) ([1]; zero point (day of synthesis)): 15.6%
